US10913757B2, “Hydroxycinnamic derivatives, methods and uses thereof” (UNIVERSIDADE DO PORTO, priority 2016, dated 2021)
Entries after “also recorded” stand apart in the source; their conditions may differ.

What was measured:
[1] = Iron (II) chelating properties, ferrozine assay; assay type: biochemical; settings: 100 μM, EDTA=100%
Procedure: In an embodiment, AntiOxCINs iron (II) chelating properties were evaluated by the ferrozine assay using ethylenediaminetetracetic acid (EDTA) as reference.
In an embodiment, AntiOxCINs iron chelating properties were evaluated by the spectrophotometric ferrozine method performed in a multiplate reader (Powerwave XS Microplate Reader) of Bio-Tech instruments.
In an embodiment, the AntiOxCINs iron chelating properties were evaluated as follows: in each well, a solution of the test compound (100 μM) and ammonium iron (II) sulphate in ammonium acetate (20 μM) were added, incubated for 10 min and the absorbance was read at 562 nm. Then, a freshly prepared solution of ferrozine (5 mM) was added to each well (96 μM final concentration). After a new incubation at 37° C. for 10 min period, the absorbance of [Fe(ferrozine)3]^2+ complex was measured at 562 nm. Blank wells were run using DMSO instead of the test compounds. EDTA was used as a reference. All compounds were tested at a final concentration of 100 μM. The absorbance of the first reading was subtracted to the final values to abolish any absorbance due to the test compounds. Data are means±SEM of three independent experiments and are expressed as % of Fe(II) chelation (EDTA=100%).

[2] = tested on: rat liver mitochondria (RLM); assay: AntiOxCINs uptake by energised rat liver mitochondria (TPP-selective electrode); assay type: in vitro ADME; settings: FIG. 3
Procedure: In an embodiment, and as an example, mitochondrial AntiOxCINs uptake was assessed in isolated rat liver mitochondria (RLM) in response to the membrane potential. AntiOxCINs can accumulate inside mitochondria driven by the ΔΨ (FIG. 3A). Different AntiOxCINs accumulation outlines within the mitochondrial matrix have been noticed. […] However, the linear increase of AntiOxCINs lipophilicity was not directly translated into an increase in the ratio of mitochondrial matrix accumulation (FIG. 3B). The following ranking order was attained: AntiOxCIN1<AntiOxCIN2<[…]<AntiOxCIN3 (catechol series); AntiOxCIN4<AntiOxCIN7<AntiOxCIN6 (pyrogallol series) (FIG. 3C).
(§1) In an embodiment, the evaluation of AntiOxCINs functional mitochondrial toxicity profile was performed in rat liver mitochondria (RLM). RLM were prepared by tissue homogenization followed by differential centrifugations in ice-cold buffer containing 250 mM sucrose, 10 mM HEPES (pH 7.4), 1 mM EGTA, and 0.1% fat-free bovine serum albumin. After obtaining a crude mitochondrial preparation, pellets were washed twice and resuspended in washing buffer (250 mM sucrose and 10 mM HEPES, pH 7.4). The protein concentration was determined by the biuret assay using BSA as a standard.
In an embodiment, the AntiOxCINs mitochondria uptake by energized RLM was evaluated as follows: RLM (0.5 mg protein/mL) were incubated with AntiOxCINs at 37° C. under constant stirring in 1 mL of KCl medium (120 mM KCl, 10 mM HEPES, pH 7.2 and 1 mM EGTA). Five sequential 1 μM additions of each AntiOxCINs were performed to calibrate the electrode response in the presence of rotenone (1.5 μM). Then, succinate (10 mM) was added to generate AN. Valinomicin (0.2 μg/mL) was added at the end of the assay to dissipate AN. […] The mitochondrial accumulation ratio was calculated by the disappearance of AntiOxCINs from extra- to intramitochondrial medium assuming an intramitochondrial volume of 0.5 μL/mg protein and a binding correction for the mitochondrial uptake of TPP compounds.

[3] = tested on: mitochondrial permeability transition pore (mPTP) of RLM; assay: Mitochondrial permeability transition pore (mPTP) opening, mitochondrial swelling; assay type: biochemical, rat; settings: 2.5, 5 and 10 μM, pre-incubated 5 min before calcium, FIG. 7A-C
Procedure: In an embodiment, the AntiOxCINs effects on mitochondrial permeability transition pore (mPTP) opening were evaluated. In general, less lipophilic AntiOxCINs had no effect on mPTP opening for all tested concentrations (FIG. 7A-C).
as §1
In an embodiment, the effect of AntiOxCINs on mitochondrial permeability transition pore opening were measured as follows: mitochondrial swelling was estimated by measuring the alterations of light scattered from a mitochondrial suspension, as monitored spectrophotometrically at 540 nm. Increasing concentrations of AntiOxCINs (2.5-10 μM) were added to the reaction medium (200 mM sucrose, 1 mM KH2PO4, 10 mM Tris (pH 7.4), 5 mM succinate and 10 μM EGTA supplemented with 1.5 μM rotenone), in the presence of RLM (1 mg), and allowed to incubate for a 5 min period before the assay. The experiments were initiated by the addition of a suitable concentration of Ca^2+ (15-50 μM), titrated every day. […] The reaction was stirred continuously and the temperature maintained at 37° C. Data are means±SEM of three independent experiments and are expressed as Aabsorbance at 540 nm.

SMILES: CS(=O)(=O)[O-].O=C(/C=C/c1ccc(O)c(O)c1)NCCCCCC[P+](c1ccccc1)(c1ccccc1)c1ccccc1 [AntiOxCIN2, (E)-(6-(3-(3,4-dihydroxyphenyl)prop-2-enamido)hexyl)triphenylphosphonium methanesulfonate]
- iron (II) chelation ([1]; FIG. 2): higher iron chelation activity than caffeic acid itself
- mitochondrial accumulation ratio [2]: approximately the same accumulation ratio

SMILES: CS(=O)(=O)[O-].O=C(/C=C/c1cc(O)c(O)c(O)c1)NCCCCCC[P+](c1ccccc1)(c1ccccc1)c1ccccc1 [AntiOxCIN4, (E)-(6-(3-(3,4,5-trihydroxyphenyl)prop-2-enamido)hexyl)triphenylphosphonium methanesulfonate]
- iron (II) chelation ([1]; FIG. 2, methanesulfonate): higher iron chelation activity than caffeic acid itself; also recorded: remarkable iron-chelation property
- mitochondrial accumulation ratio [2]: approximately the same accumulation ratio

SMILES: CS(=O)(=O)[O-].O=C(/C=C/c1ccc(O)c(O)c1)NCCCCCCCC[P+](c1ccccc1)(c1ccccc1)c1ccccc1 [AntiOxCIN3, (E)-(8-(3-(3,4-dihydroxyphenyl)acrylamido)octyl)triphenylphosphoniummethanesulfonate]
- effect on calcium-dependent mPTP opening [3]: inhibition of calcium-dependent mPTP opening

SMILES: CS(=O)(=O)[O-].O=C(/C=C/c1cc(O)c(O)c(O)c1)NCCCCCCCCCC[P+](c1ccccc1)(c1ccccc1)c1ccccc1 [AntiOxCIN7, (E)-(10-(3-(3,4,5-trihydroxyphenyl)acrylamido)decyl)triphenylphosphonium methanesulfonate]
- mitochondrial accumulation ratio [2]: lower accumulation ratio
- effect on calcium-dependent mPTP opening [3]: inhibition of calcium-dependent mPTP opening

SMILES: CS(=O)(=O)[O-].O=C(/C=C/c1cc(O)c(O)c(O)c1)NCCCCCCCC[P+](c1ccccc1)(c1ccccc1)c1ccccc1 [AntiOxCIN5, (E)-(8-(3-(3,4,5-trihydroxyphenyl)acrylamido)octyl)triphenylphosphonium methanesulfonate]
- effect on calcium-dependent mPTP opening [3]: inhibition of calcium-dependent mPTP opening

SMILES: O=C(O)/C=C/c1ccc(O)c(O)c1 [Caffeic acid, caffeic acid, reference compound]
- iron (II) chelation ([1]; FIG. 2): able to chelate ferrous iron alike EDTA

SMILES: CS(=O)(=O)[O-].O=C(/C=C/c1ccc(O)c(O)c1)NCCCCCCCCCC[P+](c1ccccc1)(c1ccccc1)c1ccccc1 [AntiOxCIN6, (E)-(10-(3-(3,4-dihydroxyphenyl)acrylamido)decyl)triphenylphosphonium methanesulfonate]
- effect on calcium-dependent mPTP opening [3]: inhibition of calcium-dependent mPTP opening
